{"source": "patent US7139415B2", "about": "“Robotic microscopy systems” (The Regents of the University of California, priority 2001, dated 2006)", "key": {"[1]": {"system": "GFP transfected neurons", "format": "cell-based", "details": "in the presence of extracellular EtHD", "protocol": "(§1) If the “loss” of GFP corresponded to the death of a neuron, that the loss of GFP positive neurons could be quantified over time as a measure of neuronal survival. To test whether the “loss” of GFP corresponded to the death of a neuron, the loss of GFP in transfected neurons was measured at the same time as the loss of membrane integrity using a membrane impermeant nuclear dye, ethidium homodimer (EtHD). EtHD staining of cell nuclei is taken as a positive sign of death in the widely used “LIVE-DEAD” assay.\nFIG. 16A is a panel of photographs exemplifying application of an automated imaging system to the study of neuronal survival, and showing that loss of GFP fluorescence correlates with a loss of membrane integrity and nuclear staining with ethidium homodimer. […] Between 60 (not shown) and 75 minutes, GFP fluorescence is abruptly lost from one neuron and its nucleus stains positively for EtHD. Later, the other transfected neuron in the image loses GFP fluorescence and stains positively for EtHD. […] Thus, overall, the GFP fluorescence of particular neurons disappeared eventually but abruptly, and at that same moment, the nuclei of those neurons stained positively with EtHD (FIG. 16A). Thus, the loss of GFP fluorescence correlated well with one widely accepted measure of cell death."}, "[2]": {"system": "neurons transfected with GFP", "test": "Automated imaging of survival of GFP-transfected neurons", "format": "cell-based", "details": "kainate added 24 or 76 hours after transfection, compared with untreated sister culture", "protocol": "as §1\nNext, expression of the transfection marker GFP was tested for its affect on survival. FIG. 16E is a graph showing the results of a parallel experiment, in which the survival of transfected neurons in two sister cultures was compared. One culture was imaged once at the end of the experiment (hatched bar) and the other was imaged both a day after transfection and at the end of the experiment (solid bars). The two cultures show nearly identical survival. Finally, if this approach is a valid way to measure neuronal survival, it should be able to detect the effects of molecules known to regulate survival. First, the ability to detect the neurotoxicity of kainic acid was tested. […]\nFIG. 16C is a graph showing survival of transfected neurons in three sister cultures was monitored and compared. […]"}}, "data": [{"molecule": "C=C(C)[C@H]1CN[C@H](C(=O)O)[C@H]1CC(=O)O", "note": "[kainic acid]", "values": [{"measurement": "morphology of GFP transfected neurons in response to the neurotoxin", "setting": "[1]", "value": "cell bodies of GFP transfected neurons rounded and swelled and their neurites began to retract"}, {"measurement": "neuronal survival (number of surviving GFP positive neurons)", "setting": "[2]", "value": "significant decrease in neuronal survival"}]}]}
